From patent US20260226025A1, “PHARMACEUTICALLY ACCEPTABLE SALT AND CRYSTAL FORM OF TRIAZOLE COMPOUND, AND PREPARATION METHOD THEREFOR” (JIANGSU HENGRUI PHARMACEUTICALS CO., LTD., priority 2023, published 2026)
Each block holds one compound with its values, some of them ahead of it.

Experiments:
[1] = target: T1, hLPAR1 (human lysophosphatidic acid receptor 1) (Homo sapiens, UniProt Q92633); experiment: FLIPR antagonist property test: LPA-induced intracellular calcium elevation in CHO-K1/LPA1R cells; format: cell-based; details: hLPAR1 expressed in CHO-K1 cells, LPA at EC80, read-out: LPAR1 IC50
T1 construct: host or cells: CHO-K1 (CHO-K1/LPA1R, cultured under hygromycin B selection)
Method: The antagonist properties of a compound of the present disclosure were assessed using the FLIPR (fluorometric imaging plate reader) method. The compound is an inhibitor of intracellular calcium elevation induced by activation of hLPAR1 (human lysophosphatidic acid receptor 1) expressed in CHO-K1 cells (Chinese hamster ovary K1 cells, HDB). • 1. Experimental reagents and instrument consumables
• 2. Reagent preparation • 2.1. Reaction buffer: HBSS+20 mM HEPES+0.1% fatty acid-free BSA+0.001% F-127 • 2.2. 50× Red dye: (a red dye for blocking background signals in cells) prepared by: weighing out 4 g of tartrazine and 10.2 g of acid red and dissolving them in 100 mL of H2O. • 2.3. Fluo-8 staining mixture: 4 mL of reaction buffer, 32 μL of fluo-8, 320 μL of 50× Red dye, and 40 μL of probenecid. • 3. Compound preparation • 3.1. […] When the cells became round, the digestion was stopped with culture medium F-12 (10% FBS), and the cells were counted. […] An FLIPR was correspondingly programmed, the 6×LPA gradient solutions were added, and readings were taken. […] A reaction curve was obtained from the numerical values of LPA, and the concentration of LPA at EC80 was calculated. […] An FLIPR was correspondingly programmed, the 6×LPA solution was added, and readings were taken. […] Finally, the output fluorescence counts were analyzed, and the IC50 of the compound was calculated. • 5. […]

[2] = Long-term/accelerated stability; format: physicochemical; details: for Crystal form / Purity %: listed as Free-state crystal form B
[3] = Influencing factor stability study (open containers; light, high temperature, high humidity); format: physicochemical
Method: Samples of the free-state crystal forms A and B of the compound represented by formula I were spread in open containers and left to stand under light exposure (4500 Lux), high temperature (40° C. and 60° C.), and high humidity (RH 75% and RH 93%) conditions for 1 month to study their stability.
Samples of the crystal forms I and II of the sodium salt of the compound represented by formula I were spread in open containers and left to stand under light exposure (4500 Lux), high temperature (40° C. and 60° C.), and high humidity (RH 75%) conditions for 1 month to study their stability.

[4] = DVS (dynamic vapor sorption) hygroscopicity test; format: physicochemical
Method: The MS analyses were performed using an Agilent 1200/1290 DAD-6110/6120 Quadrupole MS liquid chromatography-mass spectrometry system (manufacturer: Agilent; MS model: 6110/6120 Quadrupole MS), waters ACQuity UPLC-QD/SQD (manufacturer: waters; MS model: waters ACQuity Qda Detector/waters SQ Detector), and THERMO Ultimate 3000-Q Exactive (manufacturer: THERMO; MS model: THERMO Q 15 Exactive). The HPLC analyses were performed using an Agilent 1260DAD high pressure liquid chromatograph (Sunfire C18 150×4.6 mm chromatography column) and a Thermo U3000 high pressure liquid chromatograph (Gimini C18 150× 4.6 mm chromatography column). XRPD refers to X-ray powder diffraction: The analysis was performed using a BRUKER D8 X-ray diffractometer; specific acquisition information: a Cu anode (40 kV, 40 mA), ray: monochromatic Cu-Ka ray (1=1.5418 Å). Scan mode: θ/2θ; scan range: 3-48°. DSC refers to differential scanning calorimetry: The analysis was performed using a METTLER TOLEDO DSC 3+ differential scanning calorimeter, with a temperature ramp rate of 10° C./min, specific temperature ranges shown in corresponding patterns (mostly 25° C.-300° C.), and a nitrogen purge speed of 50 mL/min. TGA refers to thermogravimetric analysis: The analysis was performed using a METTLER TOLEDO TGA 2 thermogravimetric analyzer, with a temperature ramp rate of 10° C./min, specific temperature ranges shown in corresponding patterns (mostly 30° C.-400° C.), and a nitrogen purge speed of 50 mL/min. DVS refers to dynamic vapor sorption: Surface Measurement Systems instrinsic was adopted; the humidity started at 50%, the humidity range of the investigation was 0%-95%, and the humidity was increased in increments of 10%; the criterion was as follows: each gradient mass change dM/dT≤0.002%; TMAX 360 min, two cycles.

T1 sequence (Q92633 whole entry): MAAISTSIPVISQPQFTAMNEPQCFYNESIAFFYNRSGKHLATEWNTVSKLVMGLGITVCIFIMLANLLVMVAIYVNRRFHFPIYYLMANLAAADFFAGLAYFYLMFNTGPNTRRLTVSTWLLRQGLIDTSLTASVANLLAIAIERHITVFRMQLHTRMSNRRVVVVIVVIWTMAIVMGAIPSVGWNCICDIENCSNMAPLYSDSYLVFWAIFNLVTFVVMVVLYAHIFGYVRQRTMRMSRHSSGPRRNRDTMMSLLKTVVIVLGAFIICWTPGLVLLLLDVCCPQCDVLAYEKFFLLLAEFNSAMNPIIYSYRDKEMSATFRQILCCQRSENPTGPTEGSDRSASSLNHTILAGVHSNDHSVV

IC50 [1]: 8.7 nM
Structure (SMILES): COCc1ccnc(OCc2c(-c3ccc(O[C@H]4C[C@@H]5CC[C@H](C(=O)O)[C@@H]5C4)c(C)n3)nnn2C)n1 [Compound 1-P1, (1S,3aS,5S,6aR)-5-((6-(5-(((4-(methoxymethyl)pyrimidin-2-yl)oxy)methyl)-1-methyl-1H-1,2,3-triazol-4-yl)-2-methylpyridin-3-yl)oxy) octahydropentalene-1-carboxylic acid]

Crystal form ([2]; 25° C./60% RH, 1 month): Crystal form B
Purity % ([2]; 25° C./60% RH, 1 month): 97.7%
Crystal form ([2]; 25° C./60% RH, 2 months): Crystal form B
Purity % ([2]; 25° C./60% RH, 2 months): 97.7%
Crystal form ([2]; 25° C./60% RH, 3 months): Crystal form B
Purity % ([2]; 25° C./60% RH, 3 months): 97.7%
Crystal form ([2]; 25° C./60% RH, 6 months): Crystal form B
Purity % ([2]; 25° C./60% RH, 6 months): 97.7%
Crystal form ([2]; 40° C./75% RH, 1 month): Crystal form B
Purity % ([2]; 40° C./75% RH, 1 month): 97.7%
Crystal form ([2]; 40° C./75% RH, 2 months): Crystal form B
Purity % ([2]; 40° C./75% RH, 2 months): 97.7%
Crystal form ([2]; 40° C./75% RH, 3 months): Crystal form B
Purity % ([2]; 40° C./75% RH, 3 months): 97.7%
Crystal form ([2]; 40° C./75% RH, 6 months): Crystal form B
Purity % ([2]; 40° C./75% RH, 6 months): 97.7%
Crystal form ([2]; Initial, 0): Crystal form B
Purity % ([2]; Initial, 0): 97.7%
physical and chemical stability (conclusion) ([2]; long-term accelerated conditions for 6 months): good physical and chemical stability
Crystal form ([3]; 40° C., 1 month): Crystal form B
Purity % ([3]; 40° C., 1 month): 97.7%
Crystal form ([3]; 40° C., 7 days): Crystal form B
Purity % ([3]; 40° C., 7 days): 97.7%
Crystal form ([3]; 40° C., 14 days): Crystal form B
Purity % ([3]; 40° C., 14 days): 97.7%
Crystal form ([3]; 60° C., 1 month): Crystal form B
Purity % ([3]; 60° C., 1 month): 97.7%
Crystal form ([3]; 60° C., 7 days): Crystal form B
Purity % ([3]; 60° C., 7 days): 97.7%
Crystal form ([3]; 60° C., 14 days): Crystal form B
Purity % ([3]; 60° C., 14 days): 97.7%
Crystal form ([3]; 75% RH, 1 month): Crystal form B
Purity % ([3]; 75% RH, 1 month): 97.7%
Crystal form ([3]; 75% RH, 7 days): Crystal form B
Purity % ([3]; 75% RH, 7 days): 97.7%
Crystal form ([3]; 75% RH, 14 days): Crystal form B
Purity % ([3]; 75% RH, 14 days): 97.7%
Crystal form ([3]; 93% RH, 1 month): Crystal form B
Purity % ([3]; 93% RH, 1 month): 97.7%
Crystal form ([3]; 93% RH, 7 days): Crystal form B
Purity % ([3]; 93% RH, 7 days): 97.7%
Crystal form ([3]; 93% RH, 14 days): Crystal form B
Purity % ([3]; 93% RH, 14 days): 97.7%
Crystal form ([3]; 4500 Lux, 1 month): Crystal form B
Purity % ([3]; 4500 Lux, 1 month): 97.0%
Crystal form ([3]; 4500 Lux, 7 days): Crystal form B
Purity % ([3]; 4500 Lux, 7 days): 97.7%
Crystal form ([3]; 4500 Lux, 14 days): Crystal form B
Purity % ([3]; 4500 Lux, 14 days): 97.5%
Crystal form ([3]; Initial, 0 days): Crystal form B
Purity % ([3]; Initial, 0 days): 97.7%
physical and chemical stability (conclusion) ([3]; standing for 1 month, influencing factor conditions): good physical and chemical stability
hygroscopic weight gain ([4]; accelerated experimental conditions, 70% RH): about 0.31%
crystal form re-identified after the DVS test ([4]; after DVS test): its crystal form did not change
hygroscopic weight gain ([4]; extreme conditions, 90% RH): about 0.64%
hygroscopic weight gain ([4]; normal storage conditions, 25° C. and 60% RH): about 0.25%
Structure (SMILES): COCc1ccnc(OCc2c(-c3ccc(O[C@H]4C[C@@H]5CC[C@H](C(=O)O)[C@@H]5C4)c(C)n3)nnn2C)n1 [Crystal form B, (1S,3aS,5S,6aR)-5-((6-(5-(((4-(methoxymethyl)pyrimidin-2-yl)oxy)methyl)-1-methyl-1H-1,2,3-triazol-4-yl)-2-methylpyridin-3-yl)oxy) octahydropentalene-1-carboxylic acid]
